Data published in US12532889B2, “Herbicidal compositions comprising glufosinate” (BASF SE, priority 2023, dated 2026).

Assays:
Experiment in all cases: Post-emergence application in field trials (Example A)
Type in all cases: in vivo
ELEIN (Eleusine indica) = system: ELEIN (Eleusine indica)
Protocol: (§1) In the examples below, using the method of S. R. Colby (1967) “Calculating synergistic and antagonistic responses of herbicide combinations”, Weeds 15, p. 22ff., the value E, which is expected if the activity of the individual active compounds is only additive, was calculated:
(§2) [formula] • where • X=percent activity using active herbicide A at an application rate a; • Y=percent activity using active herbicide B (e.g. glufosinate) at an application rate b; • E=expected activity (in %) by A+B at application rates a+b.
(§3) If the value found experimentally is higher than the value E calculated according to Colby, a synergistic effect is present.
(§4) On field test sites, natural weed infestation or seeded weeds were treated post-emergence of the weeds.
(§5) In the field trials, the weeds were treated as indicated below.
(§6) In the following experiments, the herbicidal activity for the individual herbicidal compositions (solo and mixture applications) was assessed at the indicated days after treatment (DAT). The assessments for the damage on undesired weeds caused by the composition was carried out using a scale from 0 to 100%, compared to the untreated control plants. Here, 0 means no damage and 100 means complete destruction of the plants.
(§7) Post-emergence application of Herbicide A-1 (A-1) and glufosinate ammonium (B-2) in Field Trials:
(§8) Herbicide A-1 (50 g/l), glufosinate ammonium (200 g/l) and optional herbicide C were, together with addition of 0.5% v/v MSO (methylated seed oil) as adjuvant, formulated in water as distribution medium as indicated and sprayed with commercial flat fan nozzles.

EPHHI (Euphorbia hirta) = details: Table 1.2; EPHHI height 25 cm; A-1 solo 25 g ai/ha; 14 DAT; water volume 100 l/ha; 0.5% v/v MSO
Protocol: as §1, §2, §3, §4, §5, §6, §7, §8

[1] = system: DIGIN = TRCIN (Digitaria insularis)
Protocol: as §1, §2, §3, §4, §5, §6, §7, §8

[2] = system: SPCHI (Spermacoce hispida); details: Table 1.2, SPCHI height 25 cm, 14 DAT, water volume 100 l/ha, 0.5% v/v MSO
Protocol: as §1, §2, §3, §4, §5, §6, §7, §8

[3] = system: CYPDI (Cyperus difformis); details: CYPDI height 25 cm
Protocol: as §1, §2, §3, §4, §5, §6, §7, §8

[4] = system: COMDI (Commelina diffusa); details: Table 5.3; COMDI growth stage 76-77; A-1 25, B-6 252 g ai/ha; 28 DAT; water 300 l/ha
Method in brief: (§9)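 Field plots with natural or seeded weeds were treated post-emergence, solo or in mixtures. Damage was rated visually at stated days after treatment on a 0–100% scale against untreated plants; expected additive mixture activity calculated by the Colby method.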

IPOTR (Ipomoea triloba) = details: 21 DAT
Method in brief: as §9

[5] = system: CYPES (Cyperus esculentus); details: 21 DAT, water 140 l/ha
Method in brief: as §9

[6] = system: PASSC (Paspalum scrobiculatum); details: Table 5.2, A-1 25, B-6 252 g ai/ha, 21 DAT, water 450 l/ha
Method in brief: as §9

GALAP (Galium aparine) = details: Table 3.1; GALAP growth stage 11-16, height 2-20 cm; A-1 18, B-2 500 g ai/ha; 28 DAT; water 100 l/ha
Method in brief: as §9

AVESG (Avena strigosa) = details: Table 1.6; AVESG growth stage 11-21, height 5-10 cm; A-1 25, B-2 400 g ai/ha; 14 DAT; water 200 l/ha
Method in brief: as §9

BIDPI (Bidens pilosa) = details: Table 1.14; BIDPI height 20-45 cm; A-1 50, B-2 400 g ai/ha; 21 DAT; water 100 l/ha
Method in brief: as §9

[7] = system: HORVS (Hordeum vulgare (spring barley)); details: Table 3.1, HORVS volunteer barley, growth stage 22-24, height 32-35 cm, 28 DAT, water 100 l/ha
Method in brief: as §9

GLXMA (Glycine max) = details: 21 DAT; A-1 12.5 g ai/ha; growth stage 13; height 5-10 cm
Method in brief: as §9

CNDSS (Conyza sp.) = details: Table 1.5; CNDSS growth stage 26-59, height 15-55 cm; A-1 50, B-2 600 g ai/ha; 14 DAT; water 200 l/ha
Method in brief: as §9

AVEFA (Avena fatua) = details: Table 3.1; AVEFA growth stage 22-24, height 18-29 cm; A-1 12.5, B-2 500 g ai/ha; 28 DAT; water 100 l/ha
Method in brief: as §9

In the case of `CCOC(=O)COc1ccccc1Oc1nc(-n2c(=O)cc(C(F)(F)F)n(C)c2=O)c(F)cc1Cl` [A-1, ethyl 2-[2-[[3-chloro-5-fluoro-6-[3-methyl-2,6-dioxo-4-(trifluoromethyl)pyrimidin-1-yl]-2-pyridyl]oxy]phenoxy]acetate], the “% herbicidal activity” value (ELEIN (Eleusine indica); Table 1.10, ELEIN growth stage 23-25, height 3-5 cm, A-1 25, B-2 400 g ai/ha, 20 DAT, water 200 l/ha) was 82%, the “% herbicidal activity” value (ELEIN (Eleusine indica); Table 1.1, ELEIN growth stage 24, A-1 solo 25 g ai/ha, 14 DAT, water volume 100 l/ha, 0.5% v/v MSO) was 75% and the “% herbicidal activity” value (ELEIN (Eleusine indica); Table 1.14, ELEIN growth stage 24, A-1 25, B-2 400 g ai/ha, 21 DAT, water 100 l/ha) was 58%. For the same compound, the “% herbicidal activity” value (ELEIN (Eleusine indica); Table 1.15, ELEIN height 25 cm, A-1 25, B-2 400 g ai/ha, 21 DAT, water 100 l/ha) was 50%, the “% herbicidal activity” value (ELEIN (Eleusine indica); Table 1.15, ELEIN height 25 cm, A-1 50, B-2 400 g ai/ha, 21 DAT, water 100 l/ha) was 60% and the “% herbicidal activity” value (ELEIN (Eleusine indica); Table 1.18, ELEIN growth stage 24, A-1 25, B-2 400 g ai/ha, 21 DAT, water 200 l/ha) was 67%. The “% herbicidal activity” value (ELEIN (Eleusine indica); Table 1.18, ELEIN growth stage 24, A-1 50, B-2 400 g ai/ha, 21 DAT, water 200 l/ha) was 82%, the “% herbicidal activity” value (ELEIN (Eleusine indica); Table 1.21, ELEIN growth stage 24, A-1 25, B-2 400 g ai/ha, 21 DAT, water 200 l/ha) was 68% and the “% herbicidal activity” value (ELEIN (Eleusine indica); Table 1.21, ELEIN growth stage 24, A-1 50, B-2 400 g ai/ha, 21 DAT, water 200 l/ha) was 73%. The “% herbicidal activity” value (ELEIN (Eleusine indica); Table 1.4, ELEIN growth stage 24, A-1 50, B-2 400 g ai/ha, 14 DAT, water 200 l/ha) was 88%, the “% herbicidal activity” value (ELEIN (Eleusine indica); Table 1.9, ELEIN growth stage 23-25, height 3-5 cm, A-1 25, B-2 400 g ai/ha, 20 DAT, water 100 l/ha) was 91% and the “% herbicidal activity” value (EPHHI (Euphorbia hirta)) was 50%. For the same compound, the “% herbicidal activity” value ([1]; Table 1.13, DIGIN height 20-30 cm, A-1 50, B-2 400 g ai/ha, 21 DAT, water 100 l/ha) was 30%, the “% herbicidal activity” value ([1]; Table 1.17, DIGIN height 20-30 cm, A-1 50, B-2 400 g ai/ha, 21 DAT, water 200 l/ha) was 30% and the “% herbicidal activity” value ([1]; Table 1.19, DIGIN height 20-30 cm, A-1 50, B-2 400 g ai/ha, 21 DAT, water 200 l/ha) was 30%. For the same compound, the “% herbicidal activity” value ([1]; Table 1.20, DIGIN height 60-80 cm, A-1 50, B-2 400 g ai/ha, 21 DAT, water 200 l/ha) was 55%, the “% herbicidal activity” value ([1]; Table 1.22, DIGIN in tillering stage, height 5-15 cm, A-1 50, B-2 400 g ai/ha, 21 DAT, water 200 l/ha) was 57% and the “% herbicidal activity” value ([1]; Table 1.22, DIGIN in tillering stage, height 5-15 cm, A-1 50, B-2 600 g ai/ha, 21 DAT, water 200 l/ha) was 57%. For the same compound, the “% herbicidal activity” value ([1]; Table 1.23, DIGIN growth stage 16-18, height 15-25 cm, A-1 50, B-2 400 g ai/ha, 21 DAT, water 200 l/ha) was 57%, the “% herbicidal activity” value ([1]; Table 1.23, DIGIN growth stage 16-18, height 15-25 cm, A-1 50, B-2 600 g ai/ha, 21 DAT, water 200 l/ha) was 57% and the “% herbicidal activity” value ([1]; Table 1.24, DIGIN growth stage 67, height 100 cm, A-1 50, B-2 400 g ai/ha, 21 DAT, water 200 l/ha) was 7%. The “% herbicidal activity” value ([1]; Table 1.24, DIGIN growth stage 67, height 100 cm, A-1 50, B-2 600 g ai/ha, 21 DAT, water 200 l/ha) was 7%, the “% herbicidal activity” value ([1]; Table 1.25, DIGIN in tillering stage, height 8-20 cm, A-1 50, B-2 400 g ai/ha, 21 DAT, water 200 l/ha) was 53% and the “% herbicidal activity” value ([1]; Table 1.25, DIGIN in tillering stage, height 8-20 cm, A-1 50, B-2 600 g ai/ha, 21 DAT, water 200 l/ha) was 53%. For the same compound, the “% herbicidal activity” value ([1]; Table 1.26, DIGIN in tillering stage, height 50-70 cm, A-1 50, B-2 400 g ai/ha, 21 DAT, water 200 l/ha) was 55%, the “% herbicidal activity” value ([1]; Table 1.26, DIGIN in tillering stage, height 50-70 cm, A-1 50, B-2 600 g ai/ha, 21 DAT, water 200 l/ha) was 55% and the “% herbicidal activity” value ([1]; Table 1.3, DIGIN height 60-80 cm, A-1 25, B-2 400 g ai/ha, 14 DAT, water 200 l/ha) was 37%. For the same compound, the “% herbicidal activity” value ([1]; Table 1.3, DIGIN height 60-80 cm, A-1 50, B-2 400 g ai/ha, 14 DAT, water 200 l/ha) was 60%, the “% herbicidal activity” value ([1]; Table 1.5, DIGIN growth stage 16-18, height 15-25 cm, A-1 50, B-2 400 g ai/ha, 14 DAT, water 200 l/ha) was 62% and the “% herbicidal activity” value ([1]; Table 1.5, DIGIN growth stage 16-18, height 15-25 cm, A-1 50, B-2 600 g ai/ha, 14 DAT, water 200 l/ha) was 62%. The “% herbicidal activity” value ([1]; Table 1.7, DIGIN height 50-70 cm, tillering stage, A-1 solo 50 g ai/ha, 14 DAT, water volume 200 l/ha, 0.5% v/v MSO) was 42%, the “% herbicidal activity” value ([2]; A-1 solo 25 g ai/ha) was 40% and the “% herbicidal activity” value ([2]; A-1 solo 50 g ai/ha) was 50%. The “% herbicidal activity” value ([3]; Table 1.15, A-1 25, B-2 400 g ai/ha, 21 DAT, water 100 l/ha) was 50%, the “% herbicidal activity” value ([3]; Table 1.2, A-1 solo 25 g ai/ha, 14 DAT, water volume 100 l/ha, 0.5% v/v MSO) was 52% and the “% herbicidal activity” value ([3]; Table 1.2, A-1 solo 50 g ai/ha, 14 DAT, water volume 100 l/ha, 0.5% v/v MSO) was 60%. The “% herbicidal activity” value [4] was 60%, the “% herbicidal activity” value (IPOTR (Ipomoea triloba); Table 1.11, A-1 25, B-2 400 g ai/ha, water 100 l/ha) was 85% and the “% herbicidal activity” value (IPOTR (Ipomoea triloba); Table 1.16, A-1 25, B-2 400 g ai/ha, water 200 l/ha) was 82%. The “% herbicidal activity” value ([5]; Table 4.2, A-1 25, B-2 655 g ai/ha) was 22%, the “% herbicidal activity” value ([5]; Table 4.2, A-1 50, B-2 655 g ai/ha) was 42% and the “% herbicidal activity” value [6] was 22%. For the same compound, the “% herbicidal activity” value (GALAP (Galium aparine)) was 79%, the “% herbicidal activity” value (AVESG (Avena strigosa)) was 78% and the “% herbicidal activity” value (BIDPI (Bidens pilosa)) was 74%. The “% herbicidal activity” value ([7]; A-1 12.5, B-2 500 g ai/ha) was 40%, the “% herbicidal activity” value ([7]; A-1 18, B-2 500 g ai/ha) was 85% and the “% herbicidal activity” value (GLXMA (Glycine max)) was 90%. For the same compound, the “% herbicidal activity” value (CNDSS (Conyza sp.)) was 72% and the “% herbicidal activity” value (AVEFA (Avena fatua)) was 70%.
